Laboratory results published in patent US20250025452A1 (Clearside Biomedical, Inc., priority 2023, published 2025).

Assay: Solubility (product profile)
Format: physicochemical
Conditions: API
Text: Further information providing the solubility, particle size, viscosity, and other product profile parameters of exemplary CLS-AX compositions (active pharmaceutical ingredient (API); and drug product) are provided in Table 1C.

In the case of `CNC(=O)c1ccccc1Sc1ccc2c(/C=C/c3ccccn3)n[nH]c2c1` [Axitinib], the “Solubility (solvent)” value was “DMSO”.
